Eight compounds from PubChem BioAssay (NCI) can be followed below.

Test systems include A549 NSCLC; CCRF-CEM leukemia; HCC-2998 colon; HL-60(TB) leukemia; HOP-92 NSCLC; NCI-H226 lung; NCI-H460 lung; RXF 393 renal; SK-MEL-5 melanoma; SNB-75 CNS.
Holding throughout (experiment): NCI anticancer screen, dose series, 48 h

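Five concentrations, 48 hours, 96-well plates. At the GI50, growth is halved. TGI marks complete inhibition of growth.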

Take `O=C(O)CCC(NC(=S)S)C(=O)O.[Na+].[Zn+2]` (stereo not given): the GI50 with A549 NSCLC, in the assay on CCRF-CEM leukemia, with HCC-2998 colon, with HL-60(TB) leukemia, in the assay with HOP-92 NSCLC and in the assay on NCI-H226 lung was over 50 µM throughout. Further, the GI50 in the assay on NCI-H460 lung, with RXF 393 renal, in the assay with SK-MEL-5 melanoma and in the assay with SNB-75 CNS was over 50 µM in each case. For the same compound, the TGI with A549 NSCLC, with CCRF-CEM leukemia, in the assay on HCC-2998 colon, in the assay with HL-60(TB) leukemia, in the assay with HOP-92 NSCLC and in the assay on NCI-H226 lung was over 50 µM throughout. Further, the TGI with NCI-H460 lung, with RXF 393 renal, in the assay with SK-MEL-5 melanoma and with SNB-75 CNS was over 50 µM in each case.
For the compound `Cn1c([N+](=O)[O-])cnc1/C=C1\Oc2cc(Cl)ccc2C1=O`, the GI50 is 1.7 µM in the assay with A549 NSCLC; 0.148 µM with CCRF-CEM leukemia; 2.04 µM in the assay with HCC-2998 colon; 0.421 µM in the assay on HL-60(TB) leukemia; 1.32 µM in the assay with HOP-92 NSCLC; 2.05 µM with NCI-H226 lung. Also, the GI50 with NCI-H460 lung is 0.297 µM; in the assay with RXF 393 renal, 0.762 µM; with SK-MEL-5 melanoma it was 0.289 µM; with SNB-75 CNS, 1.8 µM. Further, the TGI with A549 NSCLC came out at 7.06 µM; in the assay with CCRF-CEM leukemia it was 0.754 µM; in the assay with HCC-2998 colon it was 4.81 µM; in the assay with HL-60(TB) leukemia it was 5.04 µM; in the assay with HOP-92 NSCLC it was 5.14 µM; with NCI-H226 lung, 8.41 µM. The TGI in the assay with NCI-H460 lung came to 3.4 µM; in the assay on RXF 393 renal, 2.37 µM; in the assay on SK-MEL-5 melanoma, 1.22 µM; in the assay on SNB-75 CNS, 9.38 µM.
On to `CC(=O)[O-].CC(=O)[O-].CC(=O)[O-].CC(=O)[O-].[Mo+2].[Mo+2]`, for which the GI50 is over 100 µM in the assay on A549 NSCLC; over 100 µM with CCRF-CEM leukemia; over 100 µM in the assay on HCC-2998 colon; over 100 µM with HL-60(TB) leukemia; 39.9 µM in the assay on HOP-92 NSCLC; over 100 µM in the assay on NCI-H226 lung. Besides, the GI50 is over 100 µM in the assay on NCI-H460 lung, over 100 µM with RXF 393 renal, over 100 µM with SK-MEL-5 melanoma and 63.5 µM with SNB-75 CNS. Besides, the TGI with A549 NSCLC, in the assay on CCRF-CEM leukemia, with HCC-2998 colon, in the assay with HL-60(TB) leukemia, with HOP-92 NSCLC and in the assay with NCI-H226 lung was over 100 µM in each case. In addition, the TGI in the assay on NCI-H460 lung, in the assay on RXF 393 renal, with SK-MEL-5 melanoma and in the assay with SNB-75 CNS was over 100 µM in each case.
Consider `CC(=O)[CH-]C(C)=O.[CH2-]C.[CH2-]C.[Tl+3]`, for which the GI50 in the assay with A549 NSCLC, in the assay on CCRF-CEM leukemia, with HCC-2998 colon, in the assay with HL-60(TB) leukemia, in the assay with HOP-92 NSCLC and with NCI-H226 lung was over 100 µM each time. The GI50 in the assay with NCI-H460 lung, with RXF 393 renal, in the assay on SK-MEL-5 melanoma and with SNB-75 CNS was over 100 µM in each case. In addition, the TGI in the assay with A549 NSCLC, with CCRF-CEM leukemia, in the assay on HCC-2998 colon, in the assay on HL-60(TB) leukemia, in the assay on HOP-92 NSCLC and in the assay with NCI-H226 lung was over 100 µM throughout. For the same compound, the TGI in the assay with NCI-H460 lung, in the assay on RXF 393 renal, with SK-MEL-5 melanoma and with SNB-75 CNS was over 100 µM in each case.
On to `NC(=O)c1cccc(Nc2nccc(Nc3cccc(F)c3)n2)c1`, for which the GI50 is 7.45 µM with A549 NSCLC; 8.54 µM with CCRF-CEM leukemia; 18.5 µM in the assay with HCC-2998 colon; 7.52 µM in the assay with HL-60(TB) leukemia; 2.66 µM in the assay on HOP-92 NSCLC; 4.74 µM in the assay on NCI-H226 lung. The GI50 in the assay with NCI-H460 lung is 7 µM; with RXF 393 renal, 3.72 µM; with SK-MEL-5 melanoma it was 4.9 µM; in the assay with SNB-75 CNS it was 6.22 µM. The TGI is over 25 µM in the assay with A549 NSCLC; over 25 µM with CCRF-CEM leukemia; over 25 µM in the assay on HCC-2998 colon; 20.5 µM in the assay with HL-60(TB) leukemia; 18.1 µM in the assay on HOP-92 NSCLC; over 21.7 µM with NCI-H226 lung. The TGI with NCI-H460 lung was over 25 µM; in the assay with RXF 393 renal it was 14.6 µM; with SK-MEL-5 melanoma it was over 16.3 µM; with SNB-75 CNS it was over 23.4 µM.
Turning to `O=C1C(SCCO)=C(SCCO)C(=O)c2ccccc21`, the TGI with A549 NSCLC worked out at 3.7 µM; in the assay on CCRF-CEM leukemia, 4.8 µM; in the assay with HCC-2998 colon, 3.42 µM; in the assay with HL-60(TB) leukemia, 7.91 µM; in the assay with HOP-92 NSCLC, 2.42 µM; in the assay on NCI-H226 lung it was 3.38 µM. Further, the TGI in the assay with NCI-H460 lung was 3.49 µM; in the assay with RXF 393 renal, 2.8 µM; in the assay with SK-MEL-5 melanoma, 0.653 µM; in the assay with SNB-75 CNS, 2.57 µM.
In the case of `CC1CCCc2c1nn(C(=O)/C=C(\N)c1ccccc1)c2N` (stereo not given), the GI50 is 9.06 µM in the assay with A549 NSCLC; 6.8 µM in the assay on CCRF-CEM leukemia; 14.6 µM in the assay with HCC-2998 colon; 5.96 µM in the assay with HL-60(TB) leukemia; 10.3 µM in the assay on HOP-92 NSCLC; 16.5 µM in the assay with NCI-H226 lung. The GI50 with NCI-H460 lung was 4.23 µM; with RXF 393 renal, 31.3 µM; in the assay with SK-MEL-5 melanoma, 4.35 µM; in the assay with SNB-75 CNS it was 25.6 µM. Besides, the TGI with A549 NSCLC was over 100 µM; with CCRF-CEM leukemia it was over 100 µM; with HCC-2998 colon it was 85.5 µM; in the assay with HL-60(TB) leukemia, 44.3 µM; in the assay with HOP-92 NSCLC, 95.7 µM; with NCI-H226 lung, over 100 µM. Besides, the TGI is over 100 µM with NCI-H460 lung, over 100 µM in the assay on RXF 393 renal, 45.7 µM with SK-MEL-5 melanoma and over 100 µM in the assay on SNB-75 CNS.
For `Cc1ncc(C(=O)Nc2ccc(CN3CCN(C)CC3)c(C(F)(F)F)c2)cc1C#Cc1cnc(NC2CC2)c2ncccc12`, the GI50 was 0.682 µM with A549 NSCLC; 0.614 µM in the assay on CCRF-CEM leukemia; 1.27 µM with HCC-2998 colon; 0.67 µM in the assay on HL-60(TB) leukemia; 0.682 µM in the assay with HOP-92 NSCLC; 2.1 µM with NCI-H226 lung. Besides, the GI50 was 0.623 µM in the assay with NCI-H460 lung, 0.606 µM with RXF 393 renal, 0.546 µM in the assay on SK-MEL-5 melanoma and 1.81 µM in the assay with SNB-75 CNS. Further, the TGI with A549 NSCLC came out at 1.33 µM; in the assay on CCRF-CEM leukemia, 1.46 µM; in the assay on HCC-2998 colon it was 2.88 µM; in the assay with HL-60(TB) leukemia, 1.47 µM; in the assay on HOP-92 NSCLC, 2.08 µM; in the assay on NCI-H226 lung, 6.46 µM. Besides, the TGI in the assay on NCI-H460 lung is 1.19 µM; in the assay with RXF 393 renal, 1.1 µM; in the assay with SK-MEL-5 melanoma, 1.04 µM; in the assay with SNB-75 CNS it was 5.75 µM.
